In ChEMBL document CHEMBL5512632, “Unlocking the potential of 1,4-naphthoquinones: A comprehensive review of their anticancer properties” (Eur J Med Chem, 2024) one finds IC50 data, which are given here for eleven compounds.

One assay deals with SK-MEL-28. Briefly: Cytotoxicity against human SK-MEL-28 cells incubated for 48 hrs by MTT assay. The assay is classed as functional, cell-based. The following applies: SK-MEL-28, 48 h.
Another assay concerns HEC-1-A. The experiment in a line: Cytotoxicity against human HEC-1-A cells incubated for 48 hrs by MTT assay. The assay is classed as functional, cell-based. In general terms: Tetrazolium assays rely on reduction of a dye to a coloured formazan, in cell work by metabolically active cells.
For a further assay, the system named is Calu-1. Briefly: Cytotoxicity against human Calu-1 cells incubated for 48 hrs by MTT assay. The assay is classed as functional, cell-based. The following applies: Calu-1, 48 h.
Assay [1] deals with HCT-116. Briefly: Antiproliferative activity against human HCT-116 cells assessed as inhibition of cell growth incubated for 48 hrs by MTS assay. The assay is classed as functional, cell-based. The conditions noted are these: HCT-116, 48 h.
The subject of assay [2] is MCF7. The experiment in a line: Antiproliferative activity against human MCF7 cells assessed as inhibition of cell growth incubated for 48 hrs by MTS assay. The assay is classed as functional, cell-based. The conditions noted are these: MCF7, 48 h.
Assay [3] deals with HeLa. The experiment in a line: Antiproliferative activity against human HeLa cells assessed as inhibition of cell growth incubated for 48 hrs by MTS assay. The assay is classed as functional, cell-based.
A further assay deals with NCI-H1299. Briefly: Antiproliferative activity against human NCI-H1299 cells assessed as inhibition of cell growth incubated for 48 hrs by MTS assay. The conditions noted are these: NCI-H1299, 48 h. It counts as functional, cell-based.
Another assay concerns B16. The experiment in a line: Antiproliferative activity against mouse B16 cells assessed as inhibition of cell growth incubated for 48 hrs by MTS assay. The assay is classed as functional, cell-based. The following applies: B16, 48 h.
The subject of assay [4] is HeLa. Briefly: Antiproliferative activity against human HeLa cells assessed as inhibition of cell growth incubated for 48 hrs by MTT assay. The assay is classed as functional, cell-based.
The next assay relates to SH-SY5Y. Briefly: Antiproliferative activity against human SH-SY5Y cells assessed as inhibition of cell growth incubated for 48 hrs by MTT assay. The assay is classed as functional, cell-based.
In the next assay the test system is SAOS-2. The experiment in a line: Antiproliferative activity against human SAOS-2 cells assessed as inhibition of cell growth incubated for 48 hrs by MTT assay. The assay is classed as functional, cell-based. The conditions noted are these: SAOS-2, 48 h.
The subject of the next assay is U2OS. The experiment in a line: Antiproliferative activity against human U2OS cells assessed as inhibition of cell growth incubated for 48 hrs by MTT assay. The assay is classed as functional, cell-based.
A further assay relates to MOLT-3. Briefly: Cytotoxicity against human MOLT-3 cells incubated for 48 hrs by XTT assay. The conditions noted are these: MOLT-3, 48 h. The assay is classed as functional, cell-based.
Assay [5] concerns MDA-MB-231. The experiment in a line: Cytotoxicity against human MDA-MB-231 cells incubated for 48 hrs by XTT assay. It counts as functional, cell-based. The following applies: MDA-MB-231, 48 h.
For the next assay, the system named is IMR-32. Briefly: Antiproliferative activity against human IMR-32 cells assessed as inhibition of cell growth incubated for 48 hrs by MTT assay. It counts as functional, cell-based. The following applies: IMR-32, 48 h.
Assay [6] can be described thus: Antiproliferative activity against human LA-N-1 cells assessed as inhibition of cell growth incubated for 48 hrs by MTT assay. The conditions noted are these: LAN1, 48 h. It counts as functional, cell-based.
Assay [7] can be described thus: Antiproliferative activity against human NB-39-nu cells assessed as inhibition of cell growth incubated for 48 hrs by MTT assay. The assay is classed as functional, cell-based.
A further assay relates to SK-N-SH. The experiment in a line: Antiproliferative activity against human SK-N-SH cells assessed as inhibition of cell growth incubated for 48 hrs by MTT assay. It counts as functional, cell-based.
In a further assay the test system is DU-145. Briefly: Antiproliferative activity against human DU-145 cells assessed as inhibition of cell growth incubated for 24 hrs by celltiter blue reagent based fluorimetric analysis. It counts as functional. The conditions noted are these: DU-145, 24 h. Background: Alamar Blue is a resazurin reagent that responds to reducing activity.
The test system of a further assay is RD. The experiment in a line: Antiproliferative activity against human RD cells assessed as inhibition of cell growth incubated for 24 hrs by celltiter blue reagent based fluorimetric analysis. It counts as functional.
The next assay relates to A549. The experiment in a line: Antiproliferative activity against human A549 cells assessed as inhibition of cell growth incubated for 24 hrs by celltiter blue reagent based fluorimetric analysis. It counts as functional. The conditions noted are these: A549, 24 h.
The test system of the next assay is SiHa. Briefly: Antiproliferative activity against human SiHa cells assessed as inhibition of cell growth by crystal violet staining based spectrophotometric assay. It counts as functional.
A short description of assay [8]: Antiproliferative activity against human CaLo cells assessed as inhibition of cell growth by crystal violet staining based spectrophotometric assay. It counts as functional.
The test system of a further assay is C-33-A. The experiment in a line: Antiproliferative activity against human C-33-A cells assessed as inhibition of cell growth by crystal violet staining based spectrophotometric assay. The assay is classed as functional.
Assay [9] has as its system MDA-MB-231. Briefly: Antiproliferative activity against human MDA-MB-231 cells assessed as inhibition of cell growth incubated for 72 hrs by trypan blue exclusion assay. The assay is classed as functional, cell-based. The following applies: MDA-MB-231, 72 h.
The test system of a further assay is HepG2. Briefly: Antiproliferative activity against human HepG2 cells assessed as inhibition of cell growth incubated for 24 hrs by MTT assay. The assay is classed as functional, cell-based. The conditions noted are these: HepG2, 24 h.
In the next assay the test system is Hep 3B2. The experiment in a line: Antiproliferative activity against human Hep3B cells assessed as inhibition of cell growth incubated for 24 hrs by MTT assay. The assay is classed as functional, cell-based.
For assay [10], the system named is Huh-7. Briefly: Antiproliferative activity against human Huh-7 cells assessed as inhibition of cell growth incubated for 24 hrs by MTT assay. The assay is classed as functional, cell-based. The following applies: Huh-7, 24 h.
For assay [11], the system named is MCF7. The experiment in a line: Cytotoxicity against human MCF7 cells assessed as inhibition of cell growth incubated for 72 hrs by resazurin assay. The assay is classed as functional, cell-based. The following applies: MCF7, 72 h.
The subject of assay [12] is Huh-7. Briefly: Cytotoxicity against human Huh-7 cells assessed as inhibition of cell growth incubated for 72 hrs by resazurin assay. It counts as functional, cell-based. The following applies: Huh-7, 72 h.
The test system of assay [13] is HCT-116. Briefly: Cytotoxicity against human HCT-116 cells assessed as inhibition of cell growth incubated for 72 hrs by resazurin assay. It counts as functional, cell-based. The following applies: HCT-116, 72 h.
Another assay relates to U-87 MG. The experiment in a line: Cytotoxicity against human U87 cells assessed as inhibition of cell growth incubated for 72 hrs by resazurin assay. The assay is classed as functional, cell-based, U-87MG ATCC.
Assay [14] concerns MDA-MB-231. Briefly: Cytotoxicity against human MDA-MB-231 cells assessed as inhibition of cell growth incubated for 72 hrs by resazurin assay. The following applies: MDA-MB-231, 72 h. The assay is classed as functional, cell-based.
The subject of a further assay is A2780. Briefly: Antiproliferative activity against human A2780 cells assessed as inhibition of cell growth incubated for 48 hrs by MTT reagent based spectrophotometric analysis. It counts as functional. The following applies: A2780, 48 h.
For a further assay, the system named is SK-OV-3. The experiment in a line: Antiproliferative activity against human SK-OV-3 cells assessed as inhibition of cell growth incubated for 48 hrs by MTT reagent based spectrophotometric analysis. It counts as functional. The following applies: SK-OV-3, 48 h.
For the next assay, the system named is OVCAR-3. The experiment in a line: Antiproliferative activity against human OVCAR-3 cells assessed as inhibition of cell growth incubated for 48 hrs by MTT reagent based spectrophotometric analysis. The conditions noted are these: OVCAR-3, 48 h. The assay is classed as functional.

By IC50 is commonly meant the concentration that inhibits the measured activity by half.

Turning to `O=C1C(Cl)=C(NCCN2CCOCC2)C(=O)c2ccccc21`, the IC50 was 10300 nM with SK-MEL-28, 14500 nM in the assay with HEC-1-A and 4390 nM in the assay with Calu-1.

Regarding `CN(C)C(=S)SCC1=C(CSC(=S)N(C)C)C(=O)c2ccccc2C1=O`, the IC50 was 88 nM with HCT-116 [1]; 69 nM in the assay with MCF7 [2]; 122 nM with HeLa [3]; 109 nM with NCI-H1299; 104 nM with B16.

Take `CC(=O)N[C@@H](CSC1=CC(=O)c2ccccc2C1=O)C(=O)O`: the IC50 in the assay with HeLa [4] was determined as 540 nM; in the assay on SH-SY5Y, 870 nM; in the assay with SAOS-2, 1670 nM; with U2OS it was 1810 nM.

Regarding `Cc1ccc(NC2=C(Cl)C(=O)c3ccccc3C2=O)cc1`, the IC50 was 4300 nM with MOLT-3 and 10700 nM with MDA-MB-231 [5].

On to `COCCSC1=C(C)C(=O)c2ccccc2C1=O`, for which the IC50 amounted to 2430 nM with IMR-32, 1550 nM in assay [6], 10700 nM in assay [7] and 3450 nM in the assay with SK-N-SH.

Consider `O=C1C=C(CCCCCCCCCC[P+](c2ccccc2)(c2ccccc2)c2ccccc2)C(=O)c2ccccc21`, for which the IC50 with DU-145 turned out to be 400 nM; in the assay with RD, 20 nM; in the assay with A549, 500 nM.

Turning to `O=C1C(Cl)=C(NC(Cc2ccc(O)cc2)C(=O)O)C(=O)c2ccccc21` (stereo unspecified), the results for the IC50 (with SiHa; in [8]; in the assay on C-33-A) were 6830 nM, 2870 nM and 1 nM, respectively.

As to `COC1=CC(=O)c2ccccc2C1=O` [2-Methoxy-1,4-naphthoquinone], in the assay with MDA-MB-231 [9], the IC50 came to 7500 nM.

On to `CCCCCCCC[S+]([O-])C1=CC(=O)c2ccccc2C1=O` (stereo unspecified), for which the IC50 in the assay on HepG2 worked out at 8560 nM; in the assay with Hep 3B2, 960 nM; with Huh-7 [10], 1960 nM.

For the compound `CCOC(=O)C(NC1=C(Cl)C(=O)c2ccccc2C1=O)C(C)=O` (stereo unspecified), the IC50 in the assay with MCF7 [11] was 24500 nM; in the assay with Huh-7 [12], 18300 nM; in the assay with HCT-116 [13] it was 13900 nM; with U-87 MG, 18900 nM; in the assay with MDA-MB-231 [14], 15900 nM.

Consider `O=C1C=C(N(Cc2ccccn2)Cc2ccccn2)C(=O)c2ccccc21`, for which the IC50 with A2780 came to 5600 nM; in the assay with SK-OV-3 it was 2800 nM; in the assay with OVCAR-3, 6800 nM.
